Results: patent EP1808178A1, “Composition comprising Astragalus radix extracts for treating prostate cancer” (Golden Biotechnology Corp., priority 2005, dated 2007)

Tested on: human prostate cancer cell lines- LNCaP cells
Experiment: In vitro mode adjunctive treatment activity assay with Taxol (MTT colorimetric cell survival)
Type: cell-based
Details: PCF1 concentration 0.0 µL/mL, i.e. Taxol (2nM) alone
Experimental: Utilize in vitro filter mode for human prostate cancer cell lines- LNCaP cells. Where human prostate cancer cell lines - LNCaP cells is being cultured in the culture medium which is supplemented by fetalbovine serum for 24 hours, and process cells by Taxol for 72 hours, and then change the culture medium so as to culture it in a new culture medium by adding assay sample for 72 hours, afterwards evaluate the cell survival rate by MIT colorimetric analysis method.
? The assay analysis of the compositions in accordance with the present invention in effect for suppressing the growth of human prostate cancer cells, wherein it is necessary to compute the cell survival rate for cells in each well of96-well microplate, afterwards evaluate the cancer cells survival rate by MIT colorimetric analysis method.
? MTT colorimetric analysis method: MTT is a kind of tertrazolium salt, with a full name of 3-[4, 5-Dimenthylthialzol-2-yl] 2, 5-diphenyltetrazoliumbromide, which is the yellow dye, capable to be absorbed by live cells and also be reduced to blue color formazan by succinate-tetrazoliumreductase in mitochondrion, which is commonly used for filtering the affection for matters to the growth and proliferation of cells.

Question: With `CC(=O)O[C@H]1C(=O)[C@@]2(C)[C@H]([C@H](OC(=O)c3ccccc3)[C@]3(O)C[C@H](OC(=O)[C@H](O)[C@@H](NC(=O)c4ccccc4)c4ccccc4)C(C)=C1C3(C)C)[C@]1(OC(C)=O)CO[C@@H]1C[C@@H]2O` [Taxol] as the compound, how does the “Cell Survival Rate (%)” value read?
Answer: Its value is 56.4%.
